# In patent US12441768B2, “Compositions and methods for treating endometriosis” (EndoMet Biosciences, Inc., priority 2018, dated 2025):
# Where a SMILES comes first, the peptide text is derived from it. The star is where a group is joined. Bn = c1ccc(C*)cc1
# Assays:
# [1] = % Viability non-Wnt responsive cells
# β-catenin = target: T1, β-catenin (Homo sapiens, UniProt P35222); assay: KD50 measurement using competitive fluorescence polarization (FP) with labelled TCF4; assay type: binding; conditions: fluorescence polarization, β-catenin; for Kd: read-out: β-Cat FP KD
# T1 sequence (P35222 1-781): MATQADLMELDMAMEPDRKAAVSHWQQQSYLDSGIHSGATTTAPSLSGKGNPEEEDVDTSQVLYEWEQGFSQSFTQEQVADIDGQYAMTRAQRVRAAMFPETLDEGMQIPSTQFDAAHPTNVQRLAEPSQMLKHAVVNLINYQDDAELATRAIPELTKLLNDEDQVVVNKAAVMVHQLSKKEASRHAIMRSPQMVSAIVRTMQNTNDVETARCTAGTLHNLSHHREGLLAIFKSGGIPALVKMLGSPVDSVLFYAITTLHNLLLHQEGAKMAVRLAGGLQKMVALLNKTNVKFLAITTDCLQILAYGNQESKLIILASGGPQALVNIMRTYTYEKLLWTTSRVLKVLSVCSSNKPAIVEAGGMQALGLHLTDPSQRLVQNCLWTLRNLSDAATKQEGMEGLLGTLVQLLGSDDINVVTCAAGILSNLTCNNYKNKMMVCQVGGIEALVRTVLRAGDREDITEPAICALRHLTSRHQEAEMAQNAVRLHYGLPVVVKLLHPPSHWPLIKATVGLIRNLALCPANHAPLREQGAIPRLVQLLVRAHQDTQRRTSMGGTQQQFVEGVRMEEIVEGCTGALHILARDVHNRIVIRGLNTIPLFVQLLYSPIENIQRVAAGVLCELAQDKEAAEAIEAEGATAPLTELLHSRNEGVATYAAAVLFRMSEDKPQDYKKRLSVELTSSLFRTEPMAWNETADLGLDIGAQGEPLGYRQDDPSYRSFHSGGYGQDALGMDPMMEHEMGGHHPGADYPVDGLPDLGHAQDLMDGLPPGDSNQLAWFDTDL
# Method in brief: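 Polarization readout (470 nm excitation, 520 nm emission) tracks loss of labelled TCF4 binding to β-catenin as test compound competes. Conditions were 5 nM tracer, 100 nM β-catenin, room temperature, compound serially diluted from 10 nM to 30 uM; run in triplicate experiments.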
# [2] = target: Wnt-responsive promoter (TCF/LEF); assay: Wnt-dependent luciferase reporter assay; assay type: cell-based, murine
# Method in brief: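 Murine 3T3 fibroblasts carrying a TCF/LEF-driven luciferase reporter, stimulated with Wnt3a in the presence of increasing peptide concentrations or vehicle. Luminescence inhibition gave EC50 values in uM.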
Kd (β-catenin) [µM],EC50 [2] [µM],β-Cat FP Hill slope (β-catenin),Compound,viability [1] [%]
> 30,> 30,–,CC[C@H](C)[C@H](NC(=O)[C@H](CC(C)C)NC(=O)[C@H](Cc1ccccc1)NC(=O)[C@H](Cc1c[nH]c2ccccc12)NC(=O)[C@H](CCSC)NC(=O)[C@H](CCCNC(=N)N)NC(=O)[C@H](CO)NC(=O)[C@@H](N)CC(=O)O)C(=O)N[C@@H](CO)C(=O)N[C@@H](Cc1ccccc1)C(=O)N[C@@H](Cc1c[nH]c2ccccc12)C(N)=O [compound 85] (H-DSRMWFLISFW-NH2),107
> 30,> 30,–,CC[C@H](C)[C@H](NC(=O)[C@H](CC(C)C)NC(=O)[C@H](Cc1ccccc1)NC(=O)[C@H](Cc1c[nH]c2ccccc12)NC(=O)[C@H](CCSC)NC(=O)[C@H](CCCNC(=N)N)NC(=O)[C@H](CO)NC(=O)[C@@H](N)CCC(=O)O)C(=O)N[C@@H](CO)C(=O)N[C@@H](Cc1ccccc1)C(=O)N[C@@H](Cc1c[nH]c2ccccc12)C(N)=O [compound 86] (H-ESRMWFLISFW-NH2),103
> 30,> 30,–,CC[C@H](C)[C@H](NC(=O)[C@H](CC(C)C)NC(=O)[C@H](Cc1ccccc1)NC(=O)[C@H](Cc1c[nH]c2ccccc12)NC(=O)[C@H](CCCCN)NC(=O)[C@H](CCCNC(=N)N)NC(=O)[C@H](CO)NC(=O)[C@@H](N)CCSC)C(=O)N[C@@H](CO)C(=O)N[C@@H](Cc1ccccc1)C(=O)N[C@@H](Cc1c[nH]c2ccccc12)C(N)=O [compound 87] (H-MSRKWFLISFW-NH2),114
> 30,> 30,–,CC[C@H](C)[C@H](NC(=O)[C@H](CC(C)C)NC(=O)[C@H](Cc1ccccc1)NC(=O)[C@H](Cc1c[nH]c2ccccc12)NC(=O)[C@H](Cc1c[nH]cn1)NC(=O)[C@H](CCCNC(=N)N)NC(=O)[C@H](CO)NC(=O)[C@@H](N)CCSC)C(=O)N[C@@H](CO)C(=O)N[C@@H](Cc1ccccc1)C(=O)N[C@@H](Cc1c[nH]c2ccccc12)C(N)=O [compound 88] (H-MSRHWFLISFW-NH2),105
> 30,> 30,–,CC[C@H](C)[C@H](NC(=O)[C@H](CC(C)C)NC(=O)[C@H](Cc1ccccc1)NC(=O)[C@H](Cc1c[nH]c2ccccc12)NC(=O)[C@H](CCSC)NC(=O)[C@H](CCCNC(=N)N)NC(=O)[C@H](CO)NC(=O)[C@@H](N)Cc1c[nH]cn1)C(=O)N[C@@H](CO)C(=O)N[C@@H](Cc1ccccc1)C(=O)N[C@@H](Cc1c[nH]c2ccccc12)C(N)=O [compound 89] (H-HSRMWFLISFW-NH2),107
> 30,> 30,–,CC[C@H](C)[C@H](NC(=O)[C@H](CC(C)C)NC(=O)[C@H](Cc1ccccc1)NC(=O)[C@H](Cc1c[nH]c2ccccc12)NC(=O)[C@H](CCCCN)NC(=O)[C@H](CCCNC(=N)N)NC(=O)[C@H](CO)NC(=O)[C@@H](N)Cc1c[nH]c2ccccc12)C(=O)N[C@@H](CO)C(=O)N[C@@H](Cc1ccccc1)C(=O)N[C@@H](Cc1c[nH]c2ccccc12)C(N)=O [compound 90] (H-WSRKWFLISFW-NH2),83.3
> 30,> 30,–,CC[C@H](C)[C@H](NC(=O)[C@H](CC(C)C)NC(=O)[C@H](Cc1ccccc1)NC(=O)[C@H](Cc1c[nH]c2ccccc12)NC(=O)[C@H](Cc1c[nH]cn1)NC(=O)[C@H](CCCNC(=N)N)NC(=O)[C@H](CO)NC(=O)[C@@H](N)Cc1c[nH]c2ccccc12)C(=O)N[C@@H](CO)C(=O)N[C@@H](Cc1ccccc1)C(=O)N[C@@H](Cc1c[nH]c2ccccc12)C(N)=O [compound 91] (H-WSRHWFLISFW-NH2),84.6
> 30,15 to 22.5,–,CC[C@H](C)[C@H](NC(=O)[C@H](CC(C)C)NC(=O)[C@H](Cc1ccccc1)NC(=O)[C@H](Cc1c[nH]c2ccccc12)NC(=O)[C@H](Cc1c[nH]c2ccccc12)NC(=O)[C@H](CCCNC(=N)N)NC(=O)[C@H](CO)NC(=O)[C@@H](N)Cc1c[nH]c2ccccc12)C(=O)N[C@@H](CO)C(=O)N[C@@H](Cc1ccccc1)C(=O)N[C@@H](Cc1c[nH]c2ccccc12)C(N)=O [compound 92] (H-WSRWWFLISFW-NH2),87.8
> 30,> 30,–,CC[C@H](C)[C@H](NC(=O)[C@H](CC(C)C)NC(=O)[C@H](Cc1ccccc1)NC(=O)[C@H](Cc1c[nH]c2ccccc12)NC(=O)[C@H](CCCCN)NC(=O)[C@H](CCCNC(=N)N)NC(=O)[C@H](CO)NC(=O)[C@@H](N)CCCCN)C(=O)N[C@@H](CO)C(=O)N[C@@H](Cc1ccccc1)C(=O)N[C@@H](Cc1c[nH]c2ccccc12)C(N)=O [compound 93] (H-KSRKWFLISFW-NH2),94
> 30,> 30,–,CC[C@H](C)[C@H](NC(=O)[C@H](CC(C)C)NC(=O)[C@H](Cc1ccccc1)NC(=O)[C@H](Cc1c[nH]c2ccccc12)NC(=O)[C@H](Cc1c[nH]cn1)NC(=O)[C@H](CCCNC(=N)N)NC(=O)[C@H](CO)NC(=O)[C@@H](N)CCCCN)C(=O)N[C@@H](CO)C(=O)N[C@@H](Cc1ccccc1)C(=O)N[C@@H](Cc1c[nH]c2ccccc12)C(N)=O [compound 94] (H-KSRHWFLISFW-NH2),118
> 30,> 30,–,CC[C@H](C)[C@H](NC(=O)[C@H](CC(C)C)NC(=O)[C@H](Cc1ccccc1)NC(=O)[C@H](Cc1c[nH]c2ccccc12)NC(=O)[C@H](Cc1c[nH]c2ccccc12)NC(=O)[C@H](CCCNC(=N)N)NC(=O)[C@H](CO)NC(=O)[C@@H](N)CCCCN)C(=O)N[C@@H](CO)C(=O)N[C@@H](Cc1ccccc1)C(=O)N[C@@H](Cc1c[nH]c2ccccc12)C(N)=O [compound 95] (H-KSRWWFLISFW-NH2),109
10 to 30,7.5 to 15,0.7,CC[C@H](C)[C@H](NC(=O)[C@H](CC(C)C)NC(=O)[C@H](Cc1ccccc1)NC(=O)[C@H](Cc1c[nH]c2ccccc12)NC(=O)[C@@H](N)CCSC)C(=O)N[C@@H](CO)C(=O)N[C@@H](CO)C(=O)N[C@@H](Cc1c[nH]c2ccccc12)C(=O)O [compound 96] (H-MWFLISSW-OH),97.3
1 to 10,22.5 to 30,2.45,CC[C@H](C)[C@H](NC(=O)[C@H](CC(C)C)NC(=O)[C@H](Cc1ccccc1)NC(=O)[C@@H](N)Cc1c[nH]c2ccccc12)C(=O)N[C@@H](CO)C(=O)N[C@@H](CO)C(=O)N[C@@H](Cc1c[nH]c2ccccc12)C(=O)O [compound 97] (H-WFLISSW-OH),102
1 to 10,> 30,1.02,CC[C@H](C)[C@H](NC(=O)[C@H](CC(C)C)NC(=O)[C@H](Cc1ccccc1)NC(=O)[C@@H](N)Cc1c[nH]c2ccccc12)C(=O)N[C@@H](CO)C(=O)N[C@@H](Cc1ccccc1)C(=O)N[C@@H](Cc1c[nH]c2ccccc12)C(N)=O [compound 98] (H-WFLISFW-NH2),96
1 to 10,22.5 to 30,0.7,CC[C@H](C)[C@H](NC(=O)[C@H](CC(C)C)NC(=O)[C@H](Cc1ccccc1)NC(=O)[C@H](Cc1c[nH]c2ccccc12)NC(=O)[C@H](CCSC)NC(=O)[C@H](CCCNC(=N)N)NC(=O)[C@H](CO)NC(=O)[C@@H](N)CCSC)C(=O)N[C@@H](CO)C(=O)N[C@@H](CO)C(=O)N[C@@H](Cc1c[nH]c2ccccc12)C(=O)O [compound 99] (H-MSRMWFLISSW-OH),97.3
1 to 10,7.5 to 15,2.8,CC[C@H](C)[C@H](NC(=O)[C@H](CC(C)C)NC(=O)[C@H](Cc1ccccc1)NC(=O)[C@@H](N)Cc1c[nH]c2ccccc12)C(=O)N[C@H](C(=O)N[C@H](C(=O)N[C@@H](Cc1c[nH]c2ccccc12)C(=O)O)[C@@H](C)O)[C@@H](C)O [compound 100] (H-WFLITTW-OH),102
1 to 10,7.5 to 15,3,CC[C@H](C)[C@H](NC(=O)[C@H](CC(C)C)NC(=O)[C@H](Cc1ccccc1)NC(=O)[C@@H](N)Cc1c[nH]c2ccccc12)C(=O)N[C@@H](CO)C(=O)N[C@@H](COCc1ccccc1)C(=O)N[C@@H](Cc1c[nH]c2ccccc12)C(=O)O [compound 101] (H-WFLISS(Bn)W-OH),106
< 0.4,15 to 22.5,0.7,CC[C@H](C)[C@H](NC(=O)[C@H](CC(C)C)NC(=O)[C@H](Cc1ccccc1)NC(=O)[C@H](Cc1c[nH]c2ccccc12)NC)C(=O)N[C@@H](CO)C(=O)N[C@@H](Cc1ccccc1)C(=O)N[C@@H](Cc1c[nH]c2ccccc12)C(N)=O [compound 102] (HELM PEPTIDE1{[meW].F.L.I.S.F.W.[am]}$$$$V2.0),101
